Measured values: patent publication US11090312B2, “Methods of treating hypogonadism with transnasal testerosterone bio-adhesive gel formulations in male with allergic rhinitis, and methods for preventing an allergic rhinitis event” (Acerus Biopharma Inc., priority 2013, dated 2021)

Assays:
[1] = Solubility of testosterone in water, solvents and oils; conditions: maximum
[2] = pKa assessment of testosterone; conditions: from molecular structure

SMILES: C[C@]12CC[C@H]3[C@@H](CCC4=CC(=O)CC[C@@]43C)[C@@H]1CC[C@@H]2O [Testosterone, 17β-Hydroxyandrost-4-en-3-one]
- Solubility in castor oil pure [1]: ≤ 3.6%
- pKa [2]: no pKa value in the range 1-14
